Results on 21 molecules are retold here after ChEMBL document CHEMBL1795227, “Methanesulfonamido-cyclohexylamine derivatives of 2,4-diaminopyrimidine as potent ALK inhibitors” (Bioorg Med Chem Lett, 2011).

One may read the IC50 as the concentration at which inhibition is half-maximal. The low end stands for greater potency, the high end for weaker potency.

In experiment [1] the target is T1, ALK tyrosine kinase receptor (Homo sapiens, UniProt Q9UM73). Put plainly: Inhibition of ALK.
Target sequence in this assay (Q9UM73 whole entry): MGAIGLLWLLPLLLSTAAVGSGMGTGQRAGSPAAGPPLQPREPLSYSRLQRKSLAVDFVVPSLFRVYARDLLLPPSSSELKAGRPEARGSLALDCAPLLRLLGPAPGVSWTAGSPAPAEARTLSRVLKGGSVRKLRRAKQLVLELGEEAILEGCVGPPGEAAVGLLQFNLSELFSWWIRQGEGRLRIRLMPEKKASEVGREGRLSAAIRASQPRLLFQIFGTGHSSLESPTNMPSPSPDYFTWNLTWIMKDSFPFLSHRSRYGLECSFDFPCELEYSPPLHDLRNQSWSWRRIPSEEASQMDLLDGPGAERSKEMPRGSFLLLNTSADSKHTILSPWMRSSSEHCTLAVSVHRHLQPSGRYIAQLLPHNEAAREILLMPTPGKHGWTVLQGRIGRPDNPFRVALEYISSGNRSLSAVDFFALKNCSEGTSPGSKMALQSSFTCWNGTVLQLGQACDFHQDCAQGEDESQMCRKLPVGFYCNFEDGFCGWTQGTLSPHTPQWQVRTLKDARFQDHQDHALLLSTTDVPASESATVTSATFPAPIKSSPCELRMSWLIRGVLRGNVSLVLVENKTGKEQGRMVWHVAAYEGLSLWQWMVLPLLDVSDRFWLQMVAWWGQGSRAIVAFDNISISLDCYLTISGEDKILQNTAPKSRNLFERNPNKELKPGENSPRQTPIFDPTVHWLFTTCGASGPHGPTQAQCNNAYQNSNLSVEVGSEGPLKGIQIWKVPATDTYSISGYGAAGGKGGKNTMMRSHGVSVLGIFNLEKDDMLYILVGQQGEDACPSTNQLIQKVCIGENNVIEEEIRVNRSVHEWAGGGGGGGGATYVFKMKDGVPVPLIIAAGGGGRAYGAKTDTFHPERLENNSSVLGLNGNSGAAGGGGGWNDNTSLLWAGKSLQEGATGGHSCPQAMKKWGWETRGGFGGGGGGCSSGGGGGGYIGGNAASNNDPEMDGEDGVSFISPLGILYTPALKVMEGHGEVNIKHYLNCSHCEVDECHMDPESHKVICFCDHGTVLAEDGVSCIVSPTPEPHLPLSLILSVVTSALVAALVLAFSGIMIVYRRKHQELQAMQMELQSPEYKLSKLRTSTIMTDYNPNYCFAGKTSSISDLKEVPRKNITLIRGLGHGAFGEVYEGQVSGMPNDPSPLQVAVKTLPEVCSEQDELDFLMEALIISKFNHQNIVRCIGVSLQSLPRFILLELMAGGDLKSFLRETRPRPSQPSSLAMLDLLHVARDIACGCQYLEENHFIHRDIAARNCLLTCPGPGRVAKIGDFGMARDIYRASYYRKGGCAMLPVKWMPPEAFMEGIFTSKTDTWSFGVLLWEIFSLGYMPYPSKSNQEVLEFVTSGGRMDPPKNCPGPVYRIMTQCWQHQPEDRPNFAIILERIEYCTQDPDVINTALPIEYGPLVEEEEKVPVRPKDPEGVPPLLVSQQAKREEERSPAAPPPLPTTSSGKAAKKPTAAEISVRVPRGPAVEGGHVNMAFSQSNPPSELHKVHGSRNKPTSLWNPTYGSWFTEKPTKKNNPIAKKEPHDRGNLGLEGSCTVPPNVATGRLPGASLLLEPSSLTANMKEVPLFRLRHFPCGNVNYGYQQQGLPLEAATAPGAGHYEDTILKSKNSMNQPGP
Experiment [2] has as its target Insulin receptor (Homo sapiens, UniProt P06213). As to the kind of experiment: Inhibition of IR.
Experiment [3] concerns the target T1, ALK tyrosine kinase receptor. As to the kind of experiment: Inhibition of autophosphorylation of NPM-ALK in human Karpas-299 cells. Format: cell-based.
Target sequence in this assay (Q9UM73 19-1620 limits assumed): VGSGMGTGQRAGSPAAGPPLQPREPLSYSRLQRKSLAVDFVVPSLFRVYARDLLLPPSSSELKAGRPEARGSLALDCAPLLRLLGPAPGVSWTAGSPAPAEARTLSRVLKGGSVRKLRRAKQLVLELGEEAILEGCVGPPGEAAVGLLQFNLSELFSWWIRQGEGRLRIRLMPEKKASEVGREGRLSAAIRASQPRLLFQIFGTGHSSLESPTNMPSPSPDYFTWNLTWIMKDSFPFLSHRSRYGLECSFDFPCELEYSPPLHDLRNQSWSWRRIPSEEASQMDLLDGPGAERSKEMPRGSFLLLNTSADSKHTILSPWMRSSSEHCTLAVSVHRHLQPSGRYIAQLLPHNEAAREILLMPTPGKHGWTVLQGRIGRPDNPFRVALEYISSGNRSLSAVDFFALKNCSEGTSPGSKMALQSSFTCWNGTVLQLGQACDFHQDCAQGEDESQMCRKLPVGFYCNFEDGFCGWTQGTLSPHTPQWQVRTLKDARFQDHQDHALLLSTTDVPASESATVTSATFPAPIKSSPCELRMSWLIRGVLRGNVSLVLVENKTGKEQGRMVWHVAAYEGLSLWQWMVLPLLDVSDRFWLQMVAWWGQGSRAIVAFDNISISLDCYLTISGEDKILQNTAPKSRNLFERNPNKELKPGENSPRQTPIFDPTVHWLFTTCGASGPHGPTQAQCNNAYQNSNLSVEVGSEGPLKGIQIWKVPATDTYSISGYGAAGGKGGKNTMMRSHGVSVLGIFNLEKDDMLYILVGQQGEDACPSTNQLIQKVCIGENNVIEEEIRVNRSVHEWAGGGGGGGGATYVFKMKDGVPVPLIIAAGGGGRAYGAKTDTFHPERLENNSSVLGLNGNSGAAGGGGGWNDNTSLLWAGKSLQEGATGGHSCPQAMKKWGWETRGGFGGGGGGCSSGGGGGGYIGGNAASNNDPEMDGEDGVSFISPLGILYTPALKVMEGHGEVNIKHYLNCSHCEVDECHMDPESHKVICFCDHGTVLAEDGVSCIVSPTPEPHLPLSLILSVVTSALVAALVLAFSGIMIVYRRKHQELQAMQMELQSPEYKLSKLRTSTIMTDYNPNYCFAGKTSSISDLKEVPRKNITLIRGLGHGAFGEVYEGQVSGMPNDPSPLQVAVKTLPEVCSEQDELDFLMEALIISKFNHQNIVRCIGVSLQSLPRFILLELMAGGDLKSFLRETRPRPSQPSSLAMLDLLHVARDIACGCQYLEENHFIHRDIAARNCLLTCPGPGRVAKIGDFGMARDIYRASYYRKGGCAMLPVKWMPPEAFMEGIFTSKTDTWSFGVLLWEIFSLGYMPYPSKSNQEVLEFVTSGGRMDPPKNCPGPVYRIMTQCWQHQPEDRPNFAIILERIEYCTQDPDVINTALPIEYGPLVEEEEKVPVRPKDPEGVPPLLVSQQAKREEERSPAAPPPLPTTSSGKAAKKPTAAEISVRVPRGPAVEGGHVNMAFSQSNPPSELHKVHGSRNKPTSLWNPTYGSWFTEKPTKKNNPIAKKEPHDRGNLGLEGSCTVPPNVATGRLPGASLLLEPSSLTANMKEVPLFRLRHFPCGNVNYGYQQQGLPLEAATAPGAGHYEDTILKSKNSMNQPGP

Insulin receptor, sequence (P06213 28-758 limits assumed): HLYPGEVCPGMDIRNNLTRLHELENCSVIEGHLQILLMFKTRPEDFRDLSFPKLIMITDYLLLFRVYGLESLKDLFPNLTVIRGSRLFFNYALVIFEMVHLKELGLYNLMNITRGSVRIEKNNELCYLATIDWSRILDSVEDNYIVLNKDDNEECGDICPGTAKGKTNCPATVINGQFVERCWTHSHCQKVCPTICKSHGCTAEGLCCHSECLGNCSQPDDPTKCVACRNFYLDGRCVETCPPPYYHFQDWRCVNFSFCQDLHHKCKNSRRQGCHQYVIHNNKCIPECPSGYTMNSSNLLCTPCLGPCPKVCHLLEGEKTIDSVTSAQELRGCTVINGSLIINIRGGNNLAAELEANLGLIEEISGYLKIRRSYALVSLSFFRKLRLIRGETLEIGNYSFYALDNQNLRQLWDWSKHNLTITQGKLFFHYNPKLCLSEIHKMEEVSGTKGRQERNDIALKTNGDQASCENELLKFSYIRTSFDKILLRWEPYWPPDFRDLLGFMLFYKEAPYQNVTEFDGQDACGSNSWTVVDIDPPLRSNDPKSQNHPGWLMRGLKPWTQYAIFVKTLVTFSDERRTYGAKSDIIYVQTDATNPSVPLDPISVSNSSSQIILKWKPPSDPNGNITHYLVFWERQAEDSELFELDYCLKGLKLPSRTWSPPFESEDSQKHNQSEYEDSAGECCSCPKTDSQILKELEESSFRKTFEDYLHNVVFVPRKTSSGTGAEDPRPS
Insulin receptor, sequence (P06213 763-1382 limits assumed): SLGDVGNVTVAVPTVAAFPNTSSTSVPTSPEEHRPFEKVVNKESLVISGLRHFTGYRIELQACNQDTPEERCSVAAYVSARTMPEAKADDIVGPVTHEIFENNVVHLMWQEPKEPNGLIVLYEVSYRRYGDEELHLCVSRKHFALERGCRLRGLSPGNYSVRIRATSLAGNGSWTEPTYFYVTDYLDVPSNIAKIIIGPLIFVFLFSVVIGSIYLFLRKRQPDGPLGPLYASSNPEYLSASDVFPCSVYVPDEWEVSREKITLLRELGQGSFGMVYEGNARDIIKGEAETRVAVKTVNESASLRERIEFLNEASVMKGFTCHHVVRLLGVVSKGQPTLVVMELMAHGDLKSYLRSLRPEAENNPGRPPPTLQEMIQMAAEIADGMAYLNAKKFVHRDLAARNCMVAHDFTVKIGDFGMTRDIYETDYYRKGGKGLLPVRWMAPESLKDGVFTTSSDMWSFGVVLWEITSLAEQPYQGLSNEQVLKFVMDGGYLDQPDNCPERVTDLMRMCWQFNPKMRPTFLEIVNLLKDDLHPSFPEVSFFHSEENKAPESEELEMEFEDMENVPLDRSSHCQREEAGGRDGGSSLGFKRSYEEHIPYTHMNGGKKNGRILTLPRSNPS

For the molecule `COc1cc(N2CCOCC2)ccc1Nc1ncc(Cl)c(N[C@H]2CCCC[C@@H]2NS(C)(=O)=O)n1`, the values for the IC50 in experiment [1] and in experiment [2] were over 10000 nM and 6300 nM, respectively.

On to `COCCN1CCc2ccc(Nc3ncc(Cl)c(N[C@@H]4CCCC[C@H]4NS(=O)(=O)CC(F)(F)F)n3)cc2CC1`, for which the IC50 in experiment [1] is 31 nM; in experiment [3], 300 nM; in experiment [2], 840 nM.

In the case of `CCN1CCc2ccc(Nc3ncc(Cl)c(N[C@@H]4CCCC[C@H]4NC(=O)C(F)(F)F)n3)cc2CC1`, the values for the IC50 in experiment [1], in experiment [3] and in experiment [2] were 26 nM, 200 nM and 740 nM, respectively.

For the molecule `COCCN1CCc2ccc(Nc3ncc(Cl)c(NC4CCCCC4)n3)cc2CC1`, the IC50 came to 78 nM in experiment [1] and 77 nM in experiment [2].

As for `COCCN1CCc2ccc(Nc3ncc(Cl)c(N[C@@H]4CCCC[C@H]4O)n3)cc2CC1` (racemic), the IC50 in experiment [1] was over 3000 nM.

Take `CCS(=O)(=O)N[C@@H]1CCCC[C@H]1Nc1nc(Nc2ccc3c(c2)CCN(CCOC)CC3)ncc1Cl`: the values for the half-inhibitory concentration (IC50) in experiment [1] and in experiment [2] were 50 nM and 930 nM, respectively.

`CCN1CCc2ccc(Nc3ncc(Cl)c(N[C@@H]4CCCC[C@H]4NS(C)(=O)=O)n3)cc2CC1`: the IC50 stood at 9 nM in experiment [1], 60 nM in experiment [3] and 920 nM in experiment [2].

With `COCCN1CCc2ccc(Nc3ncc(Cl)c(N[C@@H]4CCCC[C@H]4NC(=O)C(F)(F)F)n3)cc2CC1`, the IC50 in experiment [1] stood at 22 nM; in experiment [3], 100 nM; in experiment [2], 710 nM.

For the molecule `COCCN1CCc2ccc(Nc3ncc(Cl)c(N[C@H]4CC[C@H](NS(C)(=O)=O)CC4)n3)cc2CC1`, the concentration for half-maximal inhibition (IC50) in experiment [1] stood at 100 nM.

On to `COc1cc(N2CCOCC2)ccc1Nc1ncc(Cl)c(N[C@@H]2CCCC[C@H]2NS(C)(=O)=O)n1`, for which the IC50 was found to be 10 nM in experiment [1], 65 nM in experiment [3] and 1700 nM in experiment [2].

`COCCN1CCc2ccc(Nc3ncc(Cl)c(N[C@@H]4CCCC[C@H]4NS(=O)(=O)C(C)C)n3)cc2CC1` gave an IC50 in experiment [1] of 130 nM.

With `CCN1CCc2ccc(Nc3ncc(Cl)c(N[C@@H]4CCCC[C@H]4NC(=O)N(C)C)n3)cc2CC1`, the IC50 came to 370 nM in experiment [1] and 150 nM in experiment [2].

In the case of `COCCN1CCc2ccc(Nc3ncc(Cl)c(N[C@@H]4CCCC[C@H]4NS(=O)(=O)C4CC4)n3)cc2CC1`, it took 110 nM to reach half-maximal inhibition in experiment [1] (IC50).

Regarding `COCCN1CCc2ccc(Nc3ncc(Cl)c(N[C@H]4CC[C@@H](NS(C)(=O)=O)CC4)n3)cc2CC1`, half-maximal inhibition in experiment [1] (IC50) was put at 220 nM.

For `CCN1CCc2ccc(Nc3ncc(Cl)c(N[C@@H]4CCCC[C@H]4NC(C)=O)n3)cc2CC1`, the IC50 in experiment [1] is 9 nM; in experiment [3], 65 nM; in experiment [2], 150 nM.

Consider `CCN([C@@H]1CCCC[C@H]1Nc1nc(Nc2cc3c(cc2OC)CCN(CCOC)CC3)ncc1Cl)S(C)(=O)=O`, for which the IC50 in experiment [1] amounted to 20 nM; in experiment [3] it was 150 nM; in experiment [2], 430 nM.

The molecule `COCCN1CCc2ccc(Nc3ncc(Cl)c(N[C@@H]4CCC[C@H](NS(C)(=O)=O)C4)n3)cc2CC1` (racemic) displayed an IC50 in experiment [1] of over 3000 nM.

`COc1cc(N2CCOCC2)ccc1Nc1ncc(Cl)c(N[C@@H]2CCCC[C@@H]2NS(C)(=O)=O)n1` (racemic): the IC50 in experiment [1] was 330 nM; in experiment [2], 180 nM.

Turning to `COCCN1CCc2ccc(Nc3ncc(Cl)c(N[C@@H]4CCCC[C@H]4NS(C)(=O)=O)n3)cc2CC1`, the results for the IC50 in experiment [1], in experiment [3] and in experiment [2] were 9 nM, 73 nM and 540 nM, respectively.

As to `COCCN1CCc2ccc(Nc3ncc(Cl)c(N[C@@H]4CCC[C@@H](NS(C)(=O)=O)C4)n3)cc2CC1` (racemic), the IC50 in experiment [1] was over 3000 nM.

With `COCCN1CCc2ccc(Nc3ncc(Cl)c(N[C@@H]4CCCC[C@H]4N)n3)cc2CC1`, in experiment [1], the IC50 worked out at 680 nM.
